# According to the supplement of paper PMC10307832:
# Assays:
# Assay in all cases: relative viability (nuclei count vs DMSO), 5 days (fraction); higher = more cells survive
# YM155 + Tozasertib = compound: COCC[n+]1c2c(n(Cc3cnccn3)c1C)C(=O)c1ccccc1C2=O [YM155] + Cc1cc(Nc2cc(N3CCN(C)CC3)nc(Sc3ccc(NC(=O)C4CC4)cc3)n2)n[nH]1 [Tozasertib] (partner 0.1 µM)
# How it was run: (§1)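 Relative viability equals treated-well nuclei counts divided by vehicle-well nuclei counts. Counts came from 4× images of lung cancer cell lines grown in 1536-well plates for 5 days after pin-tool dosing on the day after seeding. Dosing used one drug alone or a fixed anchor-drug dose plus five library-drug doses (not always all listed) in √10 steps, and values are medians of duplicate plates.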
# YM155 + Decitabine = compound: COCC[n+]1c2c(n(Cc3cnccn3)c1C)C(=O)c1ccccc1C2=O [YM155] + Nc1ncn([C@H]2C[C@H](O)[C@@H](CO)O2)c(=O)n1 [Decitabine] (partner 2 µM)
# How it was run: as §1
# Quizartinib + Olaparib = compound: CC(C)(C)c1cc(NC(=O)Nc2ccc(-c3cn4c(n3)sc3cc(OCCN5CCOCC5)ccc34)cc2)no1 [Quizartinib] + O=C(c1cc(Cc2n[nH]c(=O)c3ccccc23)ccc1F)N1CCN(C(=O)C2CC2)CC1 [Olaparib] (partner 8 µM)
# How it was run: as §1
# Quizartinib + Lapatinib = compound: CC(C)(C)c1cc(NC(=O)Nc2ccc(-c3cn4c(n3)sc3cc(OCCN5CCOCC5)ccc34)cc2)no1 [Quizartinib] + CS(=O)(=O)CCNCc1ccc(-c2ccc3ncnc(Nc4ccc(OCc5cccc(F)c5)c(Cl)c4)c3c2)o1 [Lapatinib] (partner 2 µM)
# How it was run: as §1
Cell Line,relative viability (YM155 + Tozasertib; first compound 0.002 µM),relative viability (YM155 + Tozasertib; first compound 0.006325 µM),relative viability (YM155 + Tozasertib; first compound 0.02 µM),relative viability (YM155 + Tozasertib; first compound 0.06325 µM),relative viability (YM155 + Decitabine; first compound 0.002 µM),relative viability (YM155 + Decitabine; first compound 0.006325 µM),relative viability (YM155 + Decitabine; first compound 0.02 µM),relative viability (YM155 + Decitabine; first compound 0.06325 µM),relative viability (Quizartinib + Olaparib; first compound 0.001 µM),relative viability (Quizartinib + Olaparib; first compound 0.003162 µM),relative viability (Quizartinib + Olaparib; first compound 0.01 µM),relative viability (Quizartinib + Olaparib; first compound 0.03162 µM),relative viability (Quizartinib + Olaparib; first compound 0.1 µM),relative viability (Quizartinib + Lapatinib; first compound 0.001 µM),relative viability (Quizartinib + Lapatinib; first compound 0.003162 µM),relative viability (Quizartinib + Lapatinib; first compound 0.01 µM),relative viability (Quizartinib + Lapatinib; first compound 0.03162 µM),relative viability (Quizartinib + Lapatinib; first compound 0.1 µM)
NCI-H2405,0.678,0.704,0.637,0.513,0.711,0.7,0.644,0.397,0.851,0.807,0.92,0.832,0.902,1.11,1.16,0.969,0.934,1.3
NCI-H1666,0.629,0.646,0.686,0.664,0.749,0.671,0.78,0.726,0.704,0.713,0.662,0.678,0.853,0.691,0.634,0.727,0.38,0.639
NCI-H650,0.742,0.686,0.764,0.646,0.329,0.3,0.282,0.293,0.373,0.334,0.44,0.4,0.474,0.888,0.754,0.726,0.688,1.1
COR-L23,0.201,0.175,0.133,0.126,0.439,0.315,0.317,0.169,0.34,0.356,0.319,0.274,0.247,1.03,0.856,1.14,0.613,0.928
NCI-H1734,0.268,0.234,0.26,0.281,0.474,0.525,0.468,0.446,0.587,0.557,0.625,0.605,0.642,0.869,1.1,1.08,0.873,0.998
UMC-11,0.209,0.199,0.213,0.212,0.551,0.574,0.725,0.626,0.365,0.349,0.464,0.315,0.471,0.499,0.945,1.14,0.889,1.02
NCI-H596,0.847,0.811,0.953,1.03,0.886,1,1.02,1.04,0.728,0.636,0.732,0.658,0.717,1.06,0.985,1.08,1.08,1.17
EPLC-272H,0.349,0.198,0.449,0.223,0.322,0.33,0.352,0.365,0.946,0.635,0.861,0.658,0.434,0.681,1.07,0.834,0.923,1.34
RERF-LC-KJ,0.375,0.482,0.563,0.468,0.649,0.644,0.787,0.737,0.931,0.807,0.938,0.545,0.972,0.883,0.766,0.864,0.864,0.777
NCI-H1793,0.385,0.38,0.369,0.32,0.988,0.485,0.61,0.497,0.765,0.684,0.855,0.808,0.835,0.533,0.743,0.82,0.899,0.795
NCI-H727,0.38,0.721,0.615,0.7,0.871,1.01,0.867,0.857,0.66,0.678,0.843,0.708,0.769,0.876,–,0.929,0.875,0.725
SK-LU-1,0.293,0.357,0.418,0.341,0.57,0.695,0.63,0.506,0.462,0.469,0.458,0.467,0.432,0.704,0.867,1.3,0.774,0.725
PC-14,0.585,0.632,0.629,0.564,0.19,0.223,0.2,0.161,0.263,0.26,0.252,0.184,0.318,0.271,0.322,0.306,0.333,0.337
NCI-H1437,0.421,0.416,0.455,0.276,0.557,0.539,0.567,0.472,0.613,0.587,0.627,0.584,0.468,0.738,0.827,0.764,0.45,0.543
ABC-1,0.163,0.164,0.137,0.151,–,0.84,0.383,0.308,–,0.807,0.845,0.911,0.956,1.11,–,1.17,1.02,1.29
SK-MES-1,0.853,0.866,0.483,0.267,0.423,0.289,0.285,0.21,0.685,0.678,0.805,–,0.732,0.464,0.428,0.421,0.428,0.442
LK-2,0.154,0.188,0.208,0.203,0.29,0.14,0.341,0.362,0.536,0.772,0.685,0.583,0.644,0.839,0.854,1,0.723,0.761
NCI-H2085,0.794,0.804,0.867,0.77,0.594,0.557,0.54,0.471,0.707,0.748,0.789,0.7,0.72,0.733,0.769,0.851,0.809,0.742

Cell Line,relative viability (YM155 + Tozasertib; first compound 0.002 µM),relative viability (YM155 + Tozasertib; first compound 0.006325 µM),relative viability (YM155 + Tozasertib; first compound 0.02 µM),relative viability (YM155 + Tozasertib; first compound 0.06325 µM),relative viability (YM155 + Decitabine; first compound 0.002 µM),relative viability (YM155 + Decitabine; first compound 0.006325 µM),relative viability (YM155 + Decitabine; first compound 0.02 µM),relative viability (YM155 + Decitabine; first compound 0.06325 µM),relative viability (Quizartinib + Olaparib; first compound 0.001 µM),relative viability (Quizartinib + Olaparib; first compound 0.003162 µM),relative viability (Quizartinib + Olaparib; first compound 0.01 µM),relative viability (Quizartinib + Olaparib; first compound 0.03162 µM),relative viability (Quizartinib + Olaparib; first compound 0.1 µM),relative viability (Quizartinib + Lapatinib; first compound 0.001 µM),relative viability (Quizartinib + Lapatinib; first compound 0.003162 µM),relative viability (Quizartinib + Lapatinib; first compound 0.01 µM),relative viability (Quizartinib + Lapatinib; first compound 0.03162 µM),relative viability (Quizartinib + Lapatinib; first compound 0.1 µM)
NCI-H2087,0.253,0.23,0.253,0.219,0.37,0.282,0.245,0.293,0.654,0.578,0.619,0.587,0.583,0.665,0.906,1,1.09,0.935
NCI-H2347,0.531,0.59,0.786,0.567,0.64,0.612,0.648,0.539,0.458,0.518,0.701,0.57,0.608,0.604,0.923,0.94,1.03,1.1
HOP-62,0.384,0.383,0.391,0.354,0.221,0.242,0.235,0.214,–,0.322,0.54,0.619,0.449,0.745,0.957,0.993,0.978,0.888
SW 1573,0.132,0.155,0.0846,0.0818,0.369,0.461,0.243,0.136,0.292,0.538,0.572,–,0.581,1.03,1.09,1.24,1.01,1.21
NCI-H1944,0.253,0.279,0.259,0.232,0.416,0.395,0.415,0.453,0.442,0.374,0.396,0.425,0.385,0.768,0.868,0.707,0.792,0.721
HCC-44,1.01,1.01,0.888,0.273,0.936,1,0.929,0.964,0.934,0.982,1.03,0.981,0.952,0.776,1.02,0.991,1.09,0.938
NCI-H460,0.604,0.468,0.535,0.413,0.496,0.503,0.477,0.475,–,0.377,0.573,0.336,0.429,0.924,1.03,1.26,–,0.205
NCI-H1993,0.582,0.646,0.498,0.452,0.607,0.644,0.597,0.439,0.968,1.24,1.07,1.14,1.07,0.786,0.846,0.72,0.746,0.891
LOU-NH91,0.667,0.665,0.712,0.603,0.766,0.812,0.852,0.831,0.87,0.885,0.931,0.838,1.01,0.724,0.806,0.804,0.522,0.785
201T,0.916,0.961,0.955,0.974,0.825,0.838,0.851,0.88,0.581,0.802,0.833,0.87,0.857,1.09,1.04,1.07,1.06,1.05
EKVX,0.401,0.411,0.448,0.379,0.332,0.389,0.312,0.228,–,0.821,0.886,0.904,1.01,0.188,0.223,0.204,0.202,0.407
NCI-H1651,0.641,0.686,0.685,0.33,0.667,0.613,0.627,0.586,0.163,0.174,0.192,0.186,0.177,0.718,0.831,0.781,0.274,0.821
LU99A,0.26,0.255,0.318,0.265,0.84,0.808,0.824,0.936,0.253,0.251,0.293,0.276,0.238,0.857,0.901,0.999,1,0.968
LC-2-ad,0.469,0.425,0.438,0.299,0.773,0.788,0.742,0.706,0.697,0.635,0.757,0.747,0.86,0.791,0.883,0.724,0.839,0.607
A-427,0.238,0.191,0.243,0.177,0.525,0.567,0.571,0.466,0.736,0.719,0.687,0.586,0.711,0.714,0.938,1.04,0.998,0.986
NCI-H2009,0.739,0.791,0.776,0.458,0.342,0.383,0.362,0.36,0.658,0.64,0.628,0.54,0.597,0.141,0.865,0.884,0.695,0.93
LCLC-97TM1,0.197,0.202,0.227,0.22,–,0.178,0.202,0.254,0.333,0.332,0.406,0.467,0.417,–,0.862,0.527,0.848,1.43
BEN,0.565,0.518,0.587,0.581,0.684,0.712,0.718,0.741,1.11,1.02,0.991,0.841,1.02,0.473,0.661,0.579,0.667,0.747
